# Reference: publication PMC10910532, “Structure of the GDP-bound state of the SRP GTPase FlhF” (Acta Crystallographica. Section F, Structural Biology …, 2024)
# Biological target: T1, NG-FlhF (Shewanella putrefaciens, UniProt A4Y8J9)
# T1 construct: gene Sputcn32_2561; NG domain, residues 174-460, C-terminal His6 tag, recombinant from E. coli BL21(DE3), monomer; residues 183-437 modelled
# T1 sequence (A4Y8J9 174-460): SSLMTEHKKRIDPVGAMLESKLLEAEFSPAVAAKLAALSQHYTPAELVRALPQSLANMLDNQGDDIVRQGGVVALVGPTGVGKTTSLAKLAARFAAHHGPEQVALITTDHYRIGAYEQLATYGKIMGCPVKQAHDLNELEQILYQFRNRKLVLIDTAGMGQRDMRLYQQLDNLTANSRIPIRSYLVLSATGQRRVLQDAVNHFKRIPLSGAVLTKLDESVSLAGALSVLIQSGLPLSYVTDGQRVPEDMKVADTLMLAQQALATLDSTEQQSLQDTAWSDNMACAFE
# Experiment: X-ray crystal structure
# Format: binding
# Conditions: 5 mM GDP pre-incubated with protein; crystallised at pH 5.0, 20 °C; nucleotide site, no Mg2+ in active site
compound,measurement,value
Nc1nc2c(ncn2[C@@H]2O[C@H](COP(=O)(O)OP(=O)(O)O)[C@@H](O)[C@H]2O)c(=O)[nH]1 [GDP],X-ray crystal structure,Density which could unambiguously be assigned to GDP was found in the active center
